The NIST ThermoML archive (doi:10.1021/je200637v)
Numbers after ± are expanded uncertainties.

Assay: activity coefficient (dimensionless); of the first substance listed, at infinite dilution; xn = mol fraction of the nth substance listed
Conditions: Liquid, Chromatography, x1 = 0

CCCCCCCCCCCC [dodecane] + CCCCCCCC[N+](C)(C)C.O=S(=O)([N-]S(=O)(=O)C(F)(F)F)C(F)(F)F
activity coefficient (322.85 K): 33.1 ± 1.5 | activity coefficient (332.65 K): 30.5 ± 1.4 | activity coefficient (343.15 K): 27.1 ± 1.3

CCCCCCCCCCCC [dodecane] + CCCCCCCC[N+](CCCCCCCC)(CCCCCCCC)CCCCCCCC.O=S(=O)([N-]S(=O)(=O)C(F)(F)F)C(F)(F)F
activity coefficient (343.15 K): 2.72 ± 0.12

CCCCCCCCCCCC [dodecane] + CCCC[N+](C)(CCCC)CCCC.O=S(=O)([N-]S(=O)(=O)C(F)(F)F)C(F)(F)F
activity coefficient (322.85 K): 32.4 ± 1.5 | activity coefficient (332.65 K): 31.3 ± 1.4 | activity coefficient (343.15 K): 28.8 ± 1.3

CCO [ethanol] + CCCCCCCCCC[N+](C)(C)C.O=S(=O)([N-]S(=O)(=O)C(F)(F)F)C(F)(F)F
activity coefficient (322.85 K): 1.29 ± 0.04 | activity coefficient (332.65 K): 1.19 ± 0.04 | activity coefficient (343.15 K): 1.07 ± 0.03

CCO [ethanol] + CCCCCCCC[N+](C)(C)C.O=S(=O)([N-]S(=O)(=O)C(F)(F)F)C(F)(F)F
activity coefficient (322.85 K): 1.47 ± 0.06 | activity coefficient (332.65 K): 1.32 ± 0.05 | activity coefficient (343.15 K): 1.19 ± 0.04

CCO [ethanol] + CCCCCCCC[N+](CCCCCCCC)(CCCCCCCC)CCCCCCCC.O=S(=O)([N-]S(=O)(=O)C(F)(F)F)C(F)(F)F
activity coefficient (322.85 K): 1.18 ± 0.04 | activity coefficient (332.65 K): 1.12 ± 0.03 | activity coefficient (343.15 K): 1.05 ± 0.03

CCO [ethanol] + CCCC[N+](C)(CCCC)CCCC.O=S(=O)([N-]S(=O)(=O)C(F)(F)F)C(F)(F)F
activity coefficient (322.85 K): 1.53 ± 0.06 | activity coefficient (332.65 K): 1.4 ± 0.05 | activity coefficient (343.15 K): 1.27 ± 0.04

CCc1ccccc1 [ethylbenzene] + CCCCCCCCCC[N+](C)(C)C.O=S(=O)([N-]S(=O)(=O)C(F)(F)F)C(F)(F)F
activity coefficient (322.85 K): 1.16 ± 0.04 | activity coefficient (332.65 K): 1.2 ± 0.04 | activity coefficient (343.15 K): 1.19 ± 0.04

CCc1ccccc1 [ethylbenzene] + CCCCCCCC[N+](C)(C)C.O=S(=O)([N-]S(=O)(=O)C(F)(F)F)C(F)(F)F
activity coefficient (322.85 K): 1.39 ± 0.05 | activity coefficient (332.65 K): 1.4 ± 0.05 | activity coefficient (343.15 K): 1.38 ± 0.05

CCc1ccccc1 [ethylbenzene] + CCCCCCCC[N+](CCCCCCCC)(CCCCCCCC)CCCCCCCC.O=S(=O)([N-]S(=O)(=O)C(F)(F)F)C(F)(F)F
activity coefficient (322.85 K): 0.59 ± 0.03 | activity coefficient (332.65 K): 0.6 ± 0.03 | activity coefficient (343.15 K): 0.61 ± 0.03

CCc1ccccc1 [ethylbenzene] + CCCC[N+](C)(CCCC)CCCC.O=S(=O)([N-]S(=O)(=O)C(F)(F)F)C(F)(F)F
activity coefficient (322.85 K): 1.56 ± 0.06 | activity coefficient (332.65 K): 1.64 ± 0.07 | activity coefficient (343.15 K): 1.63 ± 0.07

CCCCCCC [heptane] + CCCCCCCCCC[N+](C)(C)C.O=S(=O)([N-]S(=O)(=O)C(F)(F)F)C(F)(F)F
activity coefficient (322.85 K): 5.26 ± 0.24 | activity coefficient (332.65 K): 5.14 ± 0.23 | activity coefficient (343.15 K): 4.92 ± 0.22

CCCCCCC [heptane] + CCCCCCCC[N+](C)(C)C.O=S(=O)([N-]S(=O)(=O)C(F)(F)F)C(F)(F)F
activity coefficient (322.85 K): 8.27 ± 0.38 | activity coefficient (332.65 K): 7.81 ± 0.36 | activity coefficient (343.15 K): 7.18 ± 0.33

CCCCCCC [heptane] + CCCCCCCC[N+](CCCCCCCC)(CCCCCCCC)CCCCCCCC.O=S(=O)([N-]S(=O)(=O)C(F)(F)F)C(F)(F)F
activity coefficient (322.85 K): 1.5 ± 0.06 | activity coefficient (332.65 K): 1.48 ± 0.06 | activity coefficient (343.15 K): 1.47 ± 0.06

CCCCCCC [heptane] + CCCC[N+](C)(CCCC)CCCC.O=S(=O)([N-]S(=O)(=O)C(F)(F)F)C(F)(F)F
activity coefficient (322.85 K): 8.88 ± 0.41 | activity coefficient (332.65 K): 8.82 ± 0.4 | activity coefficient (343.15 K): 8.34 ± 0.38

C=CCCCC [hex-1-ene] + CCCCCCCCCC[N+](C)(C)C.O=S(=O)([N-]S(=O)(=O)C(F)(F)F)C(F)(F)F
activity coefficient (322.85 K): 2.7 ± 0.12 | activity coefficient (332.65 K): 2.86 ± 0.13 | activity coefficient (343.15 K): 2.76 ± 0.13

C=CCCCC [hex-1-ene] + CCCCCCCC[N+](C)(C)C.O=S(=O)([N-]S(=O)(=O)C(F)(F)F)C(F)(F)F
activity coefficient (322.85 K): 3.99 ± 0.18 | activity coefficient (332.65 K): 3.8 ± 0.17 | activity coefficient (343.15 K): 3.6 ± 0.16

C=CCCCC [hex-1-ene] + CCCCCCCC[N+](CCCCCCCC)(CCCCCCCC)CCCCCCCC.O=S(=O)([N-]S(=O)(=O)C(F)(F)F)C(F)(F)F
activity coefficient (322.85 K): 1.05 ± 0.03 | activity coefficient (332.65 K): 1.05 ± 0.03 | activity coefficient (343.15 K): 1.04 ± 0.03
